Assay in all cases: DTP human tumour cell line panel, 48 h
Assay [1] deals with LOX IMVI melanoma.
For assay [2], the system named is SNB-75 CNS.
For assay [3], the system named is MDA-N.
Assay [4] has as its system DU-145 prostate.
Assay [5] deals with SW-620 colon.
Assay [6] concerns RPMI-8226 leukemia.
Assay [7] relates to OVCAR-3 ovarian.
Assay [8] relates to NCI-H460 lung.
Assay [9] relates to UACC-62 melanoma.
Assay [10] deals with SNB-19 CNS.

SMILES strings stand for the structures.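 Values below derive from 48-hour exposures of cells grown in 96-well plates, with endpoints linearly interpolated between the two concentrations bracketing the appropriate inhibition level. TGI: total growth inhibition.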 Bounds are passed on as bounds.

Among the data in PubChem BioAssay (NCI) are TGI values, retold here.

For orientation: TGI means the concentration giving total growth inhibition. Consider `CCCC(Sc1nc(N)nc2nc[nH]c12)C(=O)O` (stereo not given), for which the TGI in assay [1], in [2], in assay [3], in assay [4], in assay [5] and in [6] was greater than 100 µM each time. Further, the TGI in [7], in [8], in assay [9] and in [10] was greater than 100 µM each time.
For the molecule `Oc1nc(N/N=C/c2c[nH]c3ccccc23)[nH]c1/C=C1\C=Nc2ccccc21`, the TGI in assay [1] was 31.1 µM; in assay [2] it was 78 µM; in [3], greater than 100 µM; in assay [4], greater than 100 µM; in assay [5], 35.8 µM; in assay [6], 25.5 µM. The concentration for total growth inhibition (TGI) in [7] is 29.6 µM; in [8], greater than 100 µM; in assay [9], 37.7 µM; in [10] it was greater than 100 µM.
On to `CC1(C)C2CCC1(CS(=O)(=O)Nc1ccccc1)C(=O)C2` (stereo not given), for which the TGI in [1], in assay [2], in assay [3], in assay [4], in assay [5] and in [6] was greater than 100 µM each time. Further, the TGI in assay [7], in [8], in assay [9] and in assay [10] was greater than 100 µM each time.
As for `C[C@]12CC[C@H]3[C@@H](CCC4=CC(=O)C=C[C@@]43O)[C@@H]1CCC2=O`, the TGI in assay [1], in assay [2], in assay [3], in assay [4], in assay [5] and in [6] was greater than 100 µM in each case. Moreover, the TGI in [7], in assay [8], in [9] and in assay [10] was greater than 100 µM throughout.
Consider `O=C1Cc2c(-c3ccc(Cl)cc3)cc(-c3ccccc3)nc2-c2ccccc2N1`, for which the TGI in assay [1] was 22.8 µM; in assay [2], 14.2 µM; in [3], 55.8 µM; in [4], greater than 61.4 µM; in assay [5], greater than 46 µM; in assay [6], 60.8 µM. In addition, the TGI was 27.1 µM in [7], 10.7 µM in [8], greater than 58.9 µM in [9] and 7.31 µM in assay [10].
Take `O=C(O)CC(NC(=O)Nc1ccc([N+](=O)[O-])cc1)C(=O)Nc1ccc([N+](=O)[O-])cc1` (stereo not given): the TGI in [1], in assay [2], in [3], in assay [4], in assay [5] and in assay [6] was greater than 100 µM each time. The TGI in [7], in [8], in [9] and in [10] was greater than 100 µM each time.
In the case of `Nn1c(Cc2ccc(Cl)cc2)n[nH]c1=O`, the TGI in assay [1], in assay [2], in assay [3], in [4], in assay [5] and in [6] was greater than 100 µM each time. For the same molecule, the TGI in assay [7], in [8], in assay [9] and in [10] was greater than 100 µM in each case.
Take `CC(=O)NC1(C)CCC(C(C)(C)NC(C)=O)CC1` (stereo not given): the TGI in assay [1], in assay [2], in assay [3], in assay [4], in assay [5] and in assay [6] was greater than 100 µM throughout. Moreover, the TGI in [7], in [8], in assay [9] and in assay [10] was greater than 100 µM throughout.
For `COc1cc(C2c3cc4c(cc3C(O)C3CCC(=O)N23)OCO4)cc(OC)c1OC` (stereo not given), the concentration for total growth inhibition (TGI) in assay [1] was greater than 100 µM; in [2], greater than 100 µM; in assay [3], 38.2 µM; in [4], greater than 100 µM; in assay [5] it was greater than 100 µM; in assay [6] it was greater than 100 µM. For the same molecule, the TGI in [7], in assay [8], in assay [9] and in assay [10] was greater than 100 µM each time.
As to `O=S(=O)(c1ccccc1)n1c(C(O)c2ccncc2)cc2ccccc21` (stereo not given), the TGI in assay [1], in assay [2], in [3], in assay [4], in assay [5] and in [6] was greater than 100 µM in each case. Moreover, the TGI in assay [7] is greater than 100 µM; in [8], greater than 100 µM; in [9] it was 98.9 µM; in assay [10] it was greater than 100 µM.
For the molecule `Cc1cc(S(=O)(=O)Nc2nc3ccsc3c(=O)n2N)c(S)cc1Cl`, the TGI in [1], in [2], in assay [3], in assay [4], in [5] and in assay [6] was greater than 100 µM throughout. In addition, the TGI in assay [7], in [8], in assay [9] and in assay [10] was greater than 100 µM throughout.
